The values below come from patent US20180057580A1, “ANTI-GREMLIN-1 (GREM1) ANTIBODIES AND METHODS OF USE THEREOF FOR TREATING PULMONARY ARTERIAL HYPERTENSION” (priority 2016, published 2018).

Assay [1] relates to Sugen 5416/chronic hypoxia mouse model. The assay can be described thus: Study 3: 6 weeks Sugen5416/chronic hypoxia mouse model of pulmonary hypertension, ultrasound assessment. The assay is classed as in vivo. Here is the method:
Eleven to thirteen week old Taconic C57BL/6 mice were used. Mice were separated into treatment groups by weight such that starting body weights were similar among different groups. Cages were selected to either remain at about 21% O2 (normobaric normoxia) or placed into 10% O2 (normobaric hypoxia) chamber (a modified 3′ Semi-Rigid Isolator unit, Charles River) that maintained low O2 levels with adjustment of N2 flow to a steady intake of room air. Mice were administered Sugen5416 (Sigma, Cat#58442; VEGFR inhibitor subcutaneously at 20 mg/kg weekly for 6 weeks) and drugs or saline starting on day 21. A group of mice (n=10) housed in normobaric normoxia cages were subcutaneously administered saline at 5 mL/kg twice per week for three weeks, while mice housed in normobaric hypoxia cages were separated into 5 treatment groups including a group of mice (n=10) subcutaneously treated with saline at 5 mL/kg twice per week for three weeks, a group of mice (n=9) orally administered Bosentan (Sequoia Research Products Cat SRP02325b) at 300 mg/kg every day for three weeks, a group of mice (n=10) subcutaneously administered an isotype control antibody at 25 mg/kg twice per week for three weeks, a group of mice (n=10) subcutaneously treated with the anti-Gremlin-1 antibody at 25 mg/kg twice a week for three weeks, a group of mice (n=9) subcutaneously treated with an anti-Gremlin-1 antibody at 25 mg/kg twice a week for three weeks and orally administered Bosentan at 300 mg/kg every day for three weeks. [table] On the last day of the study, pulmonary artery size and right ventricular function and dimensions were assessed in each mouse using a high frequency ultrasound system (Vevo 2100, VisualSonics). For the assessment, mice were anesthetized (with 1.5% isoflurane at a rate of 1.0 cc/mL of medical grade air) and their temperature was monitored with a rectal temperature probe and held at approximately 37° C. with a heated platform (MouseMonitorS, Indus Instruments) and a warming lamp. Both brightness-mode (B-mode) and motion-mode (M-mode) imaging were used. B-mode imaging of the mouse heart in cross-section was used to determine pulmonary artery cross-sectional area (PA CSA) at the level of the pulmonary valve. M-mode imaging was used to determine the pulsed wave velocity time integral (VTI), which is derived from the area under the curve of representative Doppler tracings of blood flow through the pulmonary artery. Right ventricular stroke volume (RV SV) was calculated from the product of PA CSA and VTI. Right ventricular cardiac output (RV CO) was calculated from the product of SV and heart rate (HR). M-mode imaging was used to determine right ventricular free wall (RVFW) thickness during diastole and systole. Animals were returned to their home cages before right ventricular pressure assessment.

In assay [2] the test system is chronic hypoxia-induced pulmonary arterial hypertension mouse model. Nature of the assay: Study 1: 4 week chronic hypoxia mouse model of pulmonary arterial hypertension, ultrasound assessment. The assay is classed as in vivo. Particulars: study not given. From the text:
For both studies, eleven to thirteen-week-old Taconic C57BL/6 mice were used. Mice were separated into treatment groups by weight such that starting body weights were similar among different groups. Cages were selected to either remain at about 21% O2 (normobaric normoxia) or placed into a 10% O2 (normobaric hypoxia) chamber (a modified 3′ Semi-Rigid Isolator unit, Charles River) that maintained low O2 levels with adjustment of N2 flow to a steady intake of room air.
For the first study (Study 1), mice were administered drugs or saline starting on day 14. […]
On the last day of each study, pulmonary artery size and right ventricular function and dimensions were assessed in each mouse using a high frequency ultrasound system (Vevo 2100, VisualSonics). For the assessment, mice were anesthetized (with 1.5% isoflurane at a rate of 1.0 cc/mL of medical grade air) and their temperature was monitored with a rectal temperature probe and held at approximately 37° C. with a heated platform (MouseMonitorS, Indus Instruments) and a warming lamp. […] Right ventricular stroke volume (RV SV) was calculated from the product of PA CSA and VTI. Right ventricular cardiac output (RV CO) was calculated from the product of SV and heart rate (HR). […]

[3] abbreviates: Study 3, normobaric hypoxia + Sugen5416 6 weeks, 300 mg/kg PO daily from day 21.

Consider `COc1ccccc1Oc1c(NS(=O)(=O)c2ccc(C(C)(C)C)cc2)nc(-c2ncccn2)nc1OCCO` [Bosentan], for which the “PA CSA greater than hypoxic saline-treated group” value in assay [1] (Study 3, Sugen5416/hypoxia, 300 mg/kg PO daily, significant) was ~43%. In assay [1] (setting [3]), the “Heart rate (Ave ± SEM)” value is reported as 509.7 ± 18.9 beats/min, the “PA CSA (Ave ± SEM)” value is reported as 1.724 ± 0.074^%%% mm^2, the “Right Ventricular cardiac output (Ave ± SEM)” value is on record as 17.81 ± 1.46^%% ml/min and the “Stroke Volume (Ave ± SEM)” value is reported as 35.51 ± 3.22^%% ul.

B1: H4H6245P: fully human anti-GREM1 antibody, HCVR/LCVR SEQ ID NOs 434/442; relation to H4H6245P2 not stated (antibody, V domains shown)
VH: EVQLVESGGGLVQPGGSLRLSCAASGFTFNSFWMSWVRQAPGKGLEWVANIKQDGSEKYYVDSVKGRFTISRDNAKNSVYLQMNSLRAEDTAVYYCARDLVTSFDYWGQGTLVTVSS
VL: DIQMTQSPSSLSASVGDRVTITCQASQDINNYLNWYQQKPGKAPKLLIYDASYLETGVPSGFSGSGSGTDFTFTISSLQPEDIATYYCQQYDSLPYTFGQGTKLEIK
In the case of B1, the “Pulmonary artery size (cross-sectional area), result in words” value in assay [2] (FIG. 1A legend) is given as “near normoxic levels”. Moreover, the “Right ventricular stroke volume, result in words” value in assay [2] (FIG. 1B legend) is reported as “near normoxic levels”.
